Measurements taken from ChEMBL document CHEMBL4261582, “Natural products as inhibitors of Leishmania major dihydroorotate dehydrogenase” (Eur J Med Chem, 2018).

Key:
[1] = biological target: Dihydroorotate dehydrogenase (quinone), mitochondrial (Homo sapiens) (UniProt Q02127); assay: Inhibition of human DHODH at 100 uM
[2] = biological target: T1, Dihydroorotate dehydrogenase (fumarate) (Leishmania major) (UniProt Q4QEW7); assay: Inhibition of recombinant oligo-histidine-tagged Leishmania major DHODH expressed in Escherichia coli BL21(DE3) cells at 100 uM using DHO as substrate measured after 60 secs
T1 sequence (whole entry): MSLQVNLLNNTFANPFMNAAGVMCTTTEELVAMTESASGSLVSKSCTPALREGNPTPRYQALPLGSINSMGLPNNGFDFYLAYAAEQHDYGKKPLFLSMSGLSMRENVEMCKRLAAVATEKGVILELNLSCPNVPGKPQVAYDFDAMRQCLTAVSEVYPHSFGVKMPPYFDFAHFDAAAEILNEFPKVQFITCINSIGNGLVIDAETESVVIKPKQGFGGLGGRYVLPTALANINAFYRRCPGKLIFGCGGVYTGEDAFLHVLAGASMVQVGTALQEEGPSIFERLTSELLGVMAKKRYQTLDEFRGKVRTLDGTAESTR

[3] = biological target: T2, Dihydroorotate dehydrogenase (fumarate) (Leishmania major, UniProt Q4QEW7); assay: Inhibition of recombinant oligo-histidine-tagged Leishmania major DHODH expressed in Escherichia coli BL21(DE3) cells using DHO as substrate measured after 60 secs; conditions: read-out: IC50
T2 sequence (Q4QEW7 whole entry): T1 sequence (whole entry)

Leishmania donovani = assay: Antileishmanial activity against Leishmania donovani MHOM/ET/67/L82 amastigotes after 72 hrs by Alamar Blue assay; type: functional, organism-based; conditions: MHOM/ET/67/L82, 72 h
Trypanosoma cruzi = assay: Antitrypanosomal activity against Trypanosoma cruzi Tulahuen C2C4 trypomastigotes infected in rat skeletal myoblasts L-6 cells after 96 hrs by CPRG/Nonidet reagent based spectrophotometric method; type: functional, organism-based; conditions: Tulahuen C2C4, L6, 96 h
[4] = tested on: Trypanosoma brucei rhodesiense; assay: Antitrypanosomal activity against Trypanosoma brucei rhodesiense STIB 900 trypomastigotes after 72 hrs by Alamar Blue assay; type: functional, organism-based; conditions: STIB 900, 72 h
[5] = biological target: T1, Dihydroorotate dehydrogenase (fumarate) (Leishmania major); assay: Binding affinity to Leishmania major DHODH assessed as change in melting temperature at 100 uM by differential scanning fluorimetry-based ThermoFMN assay
[6] = biological target: T1, Dihydroorotate dehydrogenase (fumarate) (Leishmania major); assay: Binding affinity to Leishmania major DHODH assessed as change in melting temperature at 500 uM by differential scanning fluorimetry-based ThermoFMN assay
[7] = biological target: T1, Dihydroorotate dehydrogenase (fumarate) (Leishmania major); assay: Binding affinity to Leishmania major DHODH assessed as change in melting temperature at 1000 uM by differential scanning fluorimetry-based ThermoFMN assay
[8] = biological target: T1, Dihydroorotate dehydrogenase (fumarate) (Leishmania major); assay: Binding affinity to Leishmania major DHODH assessed as change in melting temperature at 100 uM by SYPRO orange dye-based differential scanning fluorimetry
[9] = biological target: T1, Dihydroorotate dehydrogenase (fumarate) (Leishmania major); assay: Binding affinity to Leishmania major DHODH assessed as change in melting temperature at 500 uM by SYPRO orange dye-based differential scanning fluorimetry
[10] = biological target: T1, Dihydroorotate dehydrogenase (fumarate) (Leishmania major); assay: Binding affinity to Leishmania major DHODH assessed as change in melting temperature at 1000 uM by SYPRO orange dye-based differential scanning fluorimetry
Leishmania amazonensis [11] = assay: Antileishmanial activity against Leishmania amazonensis MHOM/77BR/LTB0016 promastigotes after 72 hrs by MTT assay; type: functional, organism-based; conditions: MHOM/77BR/LTB0016, 72 h
Leishmania amazonensis [12] = assay: Antileishmanial activity against Leishmania amazonensis MHOM/77BR/LTB0016 amastigotes infected in mouse peritoneal macrophages after 48 hrs by Giemsa staining-based assay; type: functional, organism-based; conditions: MHOM/77BR/LTB0016, 48 h
Leishmania amazonensis [13] = assay: Antileishmanial activity against Leishmania amazonensis promastigotes; type: functional, organism-based
Leishmania amazonensis [14] = assay: Antileishmanial activity against Leishmania amazonensis WHOM/BR/75/Josefa promastigotes after 72 hrs by Neubauer chamber method; type: functional, organism-based
Leishmania amazonensis [15] = assay: Antileishmanial activity against Leishmania amazonensis WHOM/BR/75/Josefa amastigotes after 72 hrs by Neubauer chamber method; type: functional, organism-based
Leishmania braziliensis = assay: Antileishmanial activity against Leishmania braziliensis H3227 MHOM/BR/94/H-3227 promastigotes after 72 hrs by MTT assay; type: functional, organism-based; conditions: H3227 MHOM/BR/94/H-3227, 72 h

Sequence of Dihydroorotate dehydrogenase (quinone), mitochondrial (Homo sapiens) (Q02127 whole entry): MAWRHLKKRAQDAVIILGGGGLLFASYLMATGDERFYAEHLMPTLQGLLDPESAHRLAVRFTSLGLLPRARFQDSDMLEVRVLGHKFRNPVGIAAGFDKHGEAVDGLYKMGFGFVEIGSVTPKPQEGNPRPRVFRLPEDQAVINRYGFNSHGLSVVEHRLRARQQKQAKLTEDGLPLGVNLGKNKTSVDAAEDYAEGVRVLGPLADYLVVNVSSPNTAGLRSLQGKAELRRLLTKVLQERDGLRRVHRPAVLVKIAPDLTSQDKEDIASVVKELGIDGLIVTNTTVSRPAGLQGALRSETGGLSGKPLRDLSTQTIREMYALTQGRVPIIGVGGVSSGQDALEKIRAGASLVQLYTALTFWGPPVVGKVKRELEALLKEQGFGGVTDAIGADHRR

| Structure (SMILES) | IC50 [3] [µM] | IC50 (Trypanosoma cruzi) [µM] | IC50 [4] [µM] | IC50 (Leishmania donovani) [µM] | other results |
| --- | --- | --- | --- | --- | --- |
| O=c1cc(-c2ccc(O)cc2)oc2cc(O[C@@H]3O[C@H](CO)[C@@H](O)[C@H](O)[C@H]3O)cc(O)c12 [APIGETRIN] | 105 | 69.4 | 52.5 | 4.86 | inhibition [1]: 10%; inhibition [2]: 47% |
| C=C1C(=O)O[C@@H]2/C=C(/C)C3=CC(=O)[C@@](C)(C[C@@H](OC(=O)/C(C)=C/C)[C@@H]12)O3 [ATRIPLICIOLIDTIGLATE] | 872 |  |  |  | ΔTm [5]: -0.35 °C; ΔTm [6]: -0.85 °C; ΔTm [7]: -1.21 °C; ΔTm [8]: -0.47 °C; ΔTm [9]: -2.52 °C; ΔTm [10]: -5.97 °C |
| C=C1C(=O)O[C@@H]2/C=C(/CO)C3=CC(=O)[C@@](C)(C[C@@H](OC(=O)/C(C)=C/C)[C@@H]12)O3 [BUDLEIN A] | 263 |  |  |  |  |
| O=C(O)/C=C/c1ccc(O)c(O)c1 [CAFFEIC ACID] | 1750 | 167 | 6.11 | 31.1 | IC50 (Leishmania amazonensis [11]): 5.2 µM; IC50 (Leishmania amazonensis [12]): 16 µM |
| O=c1c(O)c(-c2ccccc2)oc2cc(O)cc(O)c12 [GALANGIN] | 481 | 73.3 | 61.1 | 5.55 |  |
| O=c1c(O)c(-c2ccc(O)cc2)oc2cc(O)cc(O)c12 [KAEMPFEROL] | 389 | 83.5 | 32.2 | 10.1 |  |
| O=c1c(O)c(-c2cc(O)c(O)c(O)c2)oc2cc(O)cc(O)c12 [MYRICETIN] |  | 94.3 | 50 | 4.08 | inhibition [1]: 41%; inhibition [2]: 67% |
| O=C(O)/C=C/c1ccccc1O [O-COUMARIC ACID] | 806 | 183 | 265 | 36.6 | IC50 (Leishmania amazonensis [12]): 13.8 µM |
| O=C(O)c1ccc(O)c(O)c1 [PROTOCATECHUIC ACID] | 922 |  | 112 |  |  |
| C[C@@H]1O[C@@H](OC[C@H]2O[C@@H](Oc3c(-c4ccc(O)c(O)c4)oc4cc(O)cc(O)c4c3=O)[C@H](O)[C@@H](O)[C@@H]2O)[C@H](O)[C@H](O)[C@H]1O [RUTIN] | 1530 | 49.1 | 6.9 | 49.1 | IC50 (Leishmania amazonensis [12]): 4.4 µM |
| C=C1C(=O)O[C@@H]2C[C@H](C)[C@@]3(O)C[C@H](O)[C@@](C)(C[C@@H](OC(=O)C(C)C)[C@@H]12)O3 [TAGITININ A] | 796 |  |  |  | ΔTm [5]: -0.26 °C; ΔTm [6]: -0.32 °C; ΔTm [7]: -0.52 °C; ΔTm [8]: -0.07 °C; ΔTm [9]: -0.06 °C; ΔTm [10]: -0.19 °C; IC50 (Leishmania braziliensis): 20.4 µM |

Further molecules by falling IC50 [3], results first:

| IC50 [3] [µM] | IC50 (Trypanosoma cruzi) [µM] | IC50 [4] [µM] | Structure (SMILES) | IC50 (Leishmania donovani) [µM] | other results |
| --- | --- | --- | --- | --- | --- |
| 467 | 555 | 319 | O=c1ccc2ccc(O)cc2o1 [UMBELLIFERONE] | 172 |  |
| 426 |  |  | C=C1C(=O)O[C@@H]2/C=C(/C)C(=O)/C=C/[C@](C)(O)C[C@@H](OC(=O)C(C)C)[C@@H]12 [TAGITININ C] |  | IC50 (Leishmania braziliensis): 9.2 µM |
| 413 | 155 | 428 | COc1cc(/C=C/C(=O)O)ccc1O [FERULATE] | 155 | IC50 (Leishmania amazonensis [11]): 1.7 µM; IC50 (Leishmania amazonensis [12]): 7.9 µM |
| 392 | 203 | 223 | O=C(O)/C=C/c1ccccc1 [CINNAMIC ACID] | 37.8 | IC50 (Leishmania amazonensis [13]): 15.5 µM |
| 262 |  |  | COc1ccc(-c2oc3cc(O)c(OC)c(O)c3c(=O)c2OC)cc1 [SANTIN] |  |  |
| 163 |  |  | O=c1c(O)c(-c2ccc(O[C@@H]3O[C@H](CO)[C@@H](O)[C@H](O)[C@H]3O)c(O)c2)oc2cc(O)cc(O)c12 [SPIRAEOSIDE] |  | inhibition [1]: 16%; inhibition [2]: 35% |
| 93.7 | 20.2 | 46.8 | COc1ccc(-c2oc3cc(O)cc(O)c3c(=O)c2O)cc1O [TAMARIXETIN] | 53.1 | inhibition [1]: 29%; inhibition [2]: 46% |
| 31.5 |  |  | C=C1C[C@@]23CC[C@H]4[C@@](C)(CCC[C@@]4(C)C(=O)O)[C@@H]2CC[C@@H]1C3 [KAURENOIC ACID] |  | inhibition [1]: 28%; inhibition [2]: 40%; IC50 (Leishmania amazonensis [14]): 93.3 µM; IC50 (Leishmania amazonensis [15]): 11.7 µM |
